# Measurements published in patent publication US20250152559A1, “METHODS FOR TREATING MYC-AMPLIFIED CANCER” (The Governing Council of the University of Toronto, priority 2023, published 2025).
# Assays:
# Assay type in all cases: cell-based, human
# [1] = system: EGR1; test: Western blotting of EGR1 expression; conditions: BAY-treated tumor cells relative to control
# Source text: A wide range of enriched biological processes were detected upon genetic loss of DHODH, including myogenic differentiation, apoptosis, DNA damage response and signaling via tumor necrosis factor α (TNFα).
# Protein lysates were isolated from approximately 500,000-1,000,000 cells. Pellets were rinsed with PBS and then lysed in RIPA buffer containing HALT™ protease inhibitor cocktail (ThermoFisher). Protein concentrations were quantified using the Bradford Assay (BioRad). Protein size was resolved via SDS-PAGE and then transferred to PVDF for immunoblotting. Rabbit polyclonal anti-DHODH (Cell Signaling Technologies; catalogue #80981), rabbit monoclonal anti-EGR1 (Cell Signaling Technologies; catalogue #4145), rabbit polyclonal anti-phospho-ERK1/2 Thr202/Tyr204 (Cell Signaling Technologies; catalogue #9101), rabbit monoclonal anti-phospho-4E-BP1 Thr37/46 (Cell Signaling Technologies; catalogue #2855) were used at a 1:1000 dilution. Mouse monoclonal anti-GAPDH (Abcam; catalogue #ab8245) was used at a 1:5000 dilution. For development, horse-radish peroxidase-conjugated secondary anti-mouse (BioRad; catalogue #1706516) and anti-rabbit antibodies (BioRad; catalogue #1706515) were used with BioRad Clarity ECL reagents. Quantification was performed by analyzing mean pixel density of each band and then normalizing to GAPDH loading control. […]
# [2] = system: O-GlcNAc-conjugated proteins and c-Myc in HD-MB03 and SU_MB002 tumor cells; test: Western blotting of O-GlcNAc-linked proteins and c-Myc; conditions: HD-MB03 and SU_MB002, BAY vs vehicle
# Source text: Uridine metabolite depletion may impact not only the macromolecular demands of the rapidly cycling cellular phenotype identified through scRNA-seq analysis (inducing cell cycle arrest), but also the potentiation of oncogenic signaling programs. […] To determine whether reduced UDP-GlcNAc abundance influences O-GlcNAcylation of proteins and/or expression of c-Myc at the protein level, the abundance of β-O-glycosidic-linked proteins (Ser and Thr residues) and the expression of c-Myc protein in HD-MB03 and SU_MB002 tumor cells treated with BAY or its vehicle, were measured using Western blotting.
# Protein lysates were isolated from approximately 500,000-1,000,000 cells. Pellets were rinsed with PBS and then lysed in RIPA buffer containing HALT™ protease inhibitor cocktail (ThermoFisher). Protein concentrations were quantified using the Bradford Assay (BioRad). Protein size was resolved via SDS-PAGE and then transferred to PVDF for immunoblotting. […] Quantification was performed by analyzing mean pixel density of each band and then normalizing to GAPDH loading control. […]
# [3] = system: SU_MB002; test: PrestoBlue cell viability, 72-hour treatment, limiting dilution; conditions: SU_MB002, media with uridine hydrochloride (100 μM)
# Protocol: SU_MB002, NSC194, NSC197 and NSC201FT, MBT375 and MED411FHTC were maintained in Neurocult Complete (NCC) media (Stem Cell Technologies; catalogue #05751). D425 and D458 were maintained in Dulbecco's […] (DMEM) containing 10% fetal bovine serum (FBS). HD-MB03 were maintained in NCC containing 10% FBS. All cell lines were conditioned in NCC for a minimum of 48 hours before experimentation. SU_MB002 and HD-MB03 G3MB-MYC PDOX were obtained from collaborators as kind gifts and are frequently passaged in vivo. SU_MB002, a treatment-refractory group 3 MB acquired at autopsy was received from Dr. Yoon-Jae Cho. Dr. Till Milde provided HD-MB03, a treatment-naïve group 3 MBs. ICB1299 group 4 MB cells were obtained as a gift from Silvia Marino's laboratory^62. MBT375 was established in-house from a surgical specimen of group 4 MB, which was engrafted in the cerebellum of mice for serial propagation. Nanostring genotyping was used to confirm group 4 medulloblastoma identity. MED411FHTC PDOX were procured from Dr. Olson's brain tumor research lab. D425 and D458 were obtained from the ATCC. All cell lines were fingerprint verified by short tandem repeat (STR) profiling. NSC194, NSC197 and NSC201FT were derived in-house from donor fetal brain tissues^63.
# For assessment of viability, cells were seeded into 96-well plates at a density of 1,000 cells per well. Viability was measured by adding PrestoBlue™ diluted 1:10 (ThermoFisher Scientific; Catalogue #A13261) followed by a 4-hour incubation. Relative fluorescence intensity was determined via background correction. To assess tumorsphere forming capacity, cells were seeded at a low density (200 cells per well) and incubated for 3-5 days. Tumorspheres were manually counted thereafter.
compound,measurement,setting,value
CCn1c(CO)nn(-c2cc(O[C@@H](C)C(F)(F)F)c(C(=O)Nc3c(F)cccc3Cl)cc2F)c1=O [BAY2402234],EGR1 protein expression,[1],upregulated at the protein level
same,abundance of O-GlcNAc-conjugated proteins,[2],global reduction
same,c-Myc protein expression,[2],significant reduction
same,tumor cell proliferation and viability with uridine supplementation,[3],rescues
